# Data taken from article PMC5673977, “Transport Deficiency Is the Molecular Basis of Candida albicans Resistance to Antifungal Oligopeptides” (Frontiers in Microbiology, 2017).
# Where a SMILES comes first, the peptide text is derived from it. [ ]: non-standard residue; d: D form. The star is where a group is joined. Fumaryl(OMe) = COC(=O)/C=C/C(=O)*; Dap = NC[C@H](N)C(=O)O
# Assays:
# Type in all cases: cell-based, Candida albicans
# [1] = tested on: C. albicans opt1–opt5Δ ptr2Δ ptr22Δ; test: Initial peptide uptake rate; conditions: 50 mM potassium phosphate buffer (pH 5.0 or 6.5) + 1% glucose, 30°C, 100 μM peptide, TNBS A420, slope 0- to 10-min
# Experimental: (§1) Yeast cells grown exponentially in the YNB-SG medium were harvested by centrifugation (3000 ×g, 5 min), washed with 50 mM potassium phosphate buffer (pH 5.0 or 6.5), and suspended in the same buffer containing 1% glucose, to a final cell density corresponding to A660 ≅ 1.0. The cell suspension was incubated at 30°C. After 10 min, an oligopeptide solution was added, to give a final concentration of 100 μM. At that moment and at 5 min intervals thereafter, 2 mL samples of the cell suspension were withdrawn, immediately filtered through the Whatman GF/A filters and the filtrates were used to determine the residual peptide concentration. Then, the 1 mL portions of the filtrates were taken and combined with 1.25 mL aliquots of a solution containing 4% Na2B4O7 × 10 H2O and 0.8 mg mL^-1 of 2,4,6-trinitrobenzenesulfonate. The reaction was carried out at 37°C for 30 min. The A420 values were measured and the peptide concentration was read from the appropriate standard curve. Data were plotted as nanomoles of an oligopeptide, taken up by 1 mg (dry weight) of cells versus time. The initial uptake velocities were determined from the slopes of the linear part of the curves, in the 0- to 10-min region.
# [2] = tested on: C. albicans ptr2Δ ptr22Δ; test: Initial peptide uptake rate; conditions: 50 mM potassium phosphate buffer (pH 5.0 or 6.5) + 1% glucose, 30°C, 100 μM peptide, TNBS A420, slope 0- to 10-min
# Experimental: as §1
# [3] = tested on: C. albicans opt1–opt5Δ; test: Initial peptide uptake rate; conditions: 50 mM potassium phosphate buffer (pH 5.0 or 6.5) + 1% glucose, 30°C, 100 μM peptide, TNBS A420, slope 0- to 10-min
# Experimental: as §1
# [4] = tested on: C. albicans opt2Δ opt3Δ; test: Initial peptide uptake rate; conditions: 50 mM potassium phosphate buffer (pH 5.0 or 6.5) + 1% glucose, 30°C, 100 μM peptide, TNBS A420, slope 0- to 10-min
# Experimental: as §1
# [5] = tested on: C. albicans opt5Δ; test: Initial peptide uptake rate; conditions: 50 mM potassium phosphate buffer (pH 5.0 or 6.5) + 1% glucose, 30°C, 100 μM peptide, TNBS A420, slope 0- to 10-min
# Experimental: as §1
# [6] = tested on: C. albicans SC5314; test: Initial peptide uptake rate; conditions: SC 5314; cells grown in YNB-SG; 50 mM potassium phosphate buffer (pH 5.0 or 6.5) + 1% glucose, 30°C, 100 μM peptide, residual peptide by TNBS A420, slope 0- to 10-min
# Experimental: as §1
# [7] = tested on: C. albicans opt1Δ; test: Initial peptide uptake rate; conditions: 50 mM potassium phosphate buffer (pH 5.0 or 6.5) + 1% glucose, 30°C, 100 μM peptide, TNBS A420, slope 0- to 10-min
# Experimental: as §1
# [8] = tested on: C. albicans opt4Δ; test: Initial peptide uptake rate; conditions: 50 mM potassium phosphate buffer (pH 5.0 or 6.5) + 1% glucose, 30°C, 100 μM peptide, TNBS A420, slope 0- to 10-min
# Experimental: as §1
# [9] = tested on: C. albicans SC 5314 cells; test: Morphological changes, Calcofluor White staining for chitin; conditions: SC 5314 cells in RPMI-1640, 6 h, 30°C, F11 100 μg mL^-1
# Experimental: Candida albicans cells from the overnight cultures in YPD were harvested, washed with sterile saline and suspended in the RPMI-1640 medium, to the final cell density of 10^5 cfu mL^-1. The compounds tested were added at appropriate concentrations and cultures were incubated for 6 h at 30°C, with shaking. At time intervals, samples of 0.1 mL were collected and cells were stained for chitin. The culture samples were combined with 0.1 mL aliquots of the Calcofluor White solution [0.3 mg mL^-1 in 25 mM phosphate-buffered saline (PBS), pH 7.0] and incubated for 5 min at 25°C. The cells were then harvested, washed four times with PBS, re-suspended in 0.1 mL of the fresh PBS and transferred to a microscopic slide. The stained cells were examined with the Olympus BX 60 F5 fluorescence microscope and photographs were taken using the Studio Lite software (Pixera Corporation, United States).
# Since the anticandidal activity of P10 was moderate but independent on medium content and that of F11 was higher but strongly influenced by medium composition, it seemed obvious that the molecular bases of growth inhibitory activity of P10 and F11 were different and that a higher activity of F11 resulted from the presence of FMDP in its structure. To confirm whether the anticandidal activity of F11 was a consequence of GlcN6P synthase inhibition by FMDP, a morphology of SC 5314 cells treated with F11 was compared to that of the untreated cells. The cells were stained with Calcofluor White, the fluorescent brightener that binds specifically to chitin in the fungal cell wall. […] Since it is well known that the primary septum is built of chitin, this finding confirms that the action of F11 results in inhibition of chitin biosynthesis.
# [10] = tested on: C. albicans isolates NF1-3 and LNF1-3; test: Initial peptide uptake rate by isolates resistant to F2/F3; conditions: all six isolates NF1-3, LNF1-3; Figure 4
# Experimental: as §1
# It is therefore clear that the diminished sensitivity of all six isolates to F2 and F3 was due to the reduced uptake, most likely by permease(s) of the PTR system.
Structure (SMILES),Uptake rate ± SD [1],Uptake rate ± SD [2],Uptake rate ± SD [3],Uptake rate ± SD [4],Uptake rate ± SD [5],Uptake rate ± SD [6],Uptake rate ± SD [7],Uptake rate ± SD [8],Morphological changes (primary septum / chitin) [9],Initial uptake rate relative to wild type SC5314 cells [10]
"COC(=O)/C=C/C(=O)NC[C@H](N)C(=O)N[C@@H](CCCNC(=N)N)C(=O)N[C@@H](CCCCN)C(=O)N[C@@H](CCCCN)C(=O)N[C@@H](Cc1c[nH]c2ccccc12)C(=O)N[C@@H](Cc1ccccc1)C(=O)N[C@@H](Cc1c[nH]c2ccccc12)C(=O)O [Peptide F7, FMDP-Arg-Lys-Lys-Trp-Phe-Trp] (H-[Dap](Fumaryl(OMe))RKKWFW-OH; N-terminus and C-terminus assumed)",0.23 ± 0.02 nmol min^-1 (mg dry weight)^-1,2.22 ± 0.16 nmol min^-1 (mg dry weight)^-1,0.32 ± 0.07 nmol min^-1 (mg dry weight)^-1,0.46 ± 0.08 nmol min^-1 (mg dry weight)^-1,1.44 ± 0.10 nmol min^-1 (mg dry weight)^-1,2.40 ± 0.16 nmol min^-1 (mg dry weight)^-1,1.70 ± 0.12 nmol min^-1 (mg dry weight)^-1,1.85 ± 0.12 nmol min^-1 (mg dry weight)^-1,analogous to those observed for F11-treated cells,–
"COC(=O)/C=C/C(=O)NC[C@H](N)C(=O)N[C@@H](CCCCN)C(=O)N[C@@H](CCCCN)C(=O)N[C@H](C(=O)N[C@H](C(=O)N[C@@H](Cc1ccccc1)C(=O)N[C@@H](Cc1c[nH]c2ccccc12)C(=O)N[C@H](C(=O)N[C@@H](CCCCN)C(=O)N[C@@H](Cc1ccccc1)C(=O)N[C@@H](CCCCN)C(=O)O)C(C)C)C(C)C)C(C)C [Peptide F11, FMDP-Lys-Lys-Val-Val-Phe-Trp-Val-Lys-Phe-Lys] (H-[Dap](Fumaryl(OMe))KKVVFWVKFK-OH; N-terminus assumed)",0.18 ± 0.02 nmol min^-1 (mg dry weight)^-1,2.28 ± 0.15 nmol min^-1 (mg dry weight)^-1,–,0.22 ± 0.03 nmol min^-1 (mg dry weight)^-1,1.92 ± 0.18 nmol min^-1 (mg dry weight)^-1,2.25 ± 0.15 nmol min^-1 (mg dry weight)^-1,1.64 ± 0.11 nmol min^-1 (mg dry weight)^-1,1.77 ± 0.18 nmol min^-1 (mg dry weight)^-1,defective in formation of a primary septum,–
"COC(=O)/C=C/C(=O)NC[C@H](NC(=O)[C@H](CCSC)NC(=O)[C@@H](NC(=O)[C@@H]1CCCN1C(=O)[C@H](CC(C)C)NC(=O)[C@@H](N)CCCCN)C(C)C)C(=O)O [Peptide F6, Lys-Leu-Pro-Val-Met-FMDP] (H-KLPVM[Dap](Fumaryl(OMe))-OH; N-terminus and C-terminus assumed)",0.18 ± 0.03 nmol min^-1 (mg dry weight)^-1,3.00 ± 0.25 nmol min^-1 (mg dry weight)^-1,0.22 ± 0.04 nmol min^-1 (mg dry weight)^-1,0.56 ± 0.09 nmol min^-1 (mg dry weight)^-1,2.03 ± 0.15 nmol min^-1 (mg dry weight)^-1,3.12 ± 0.20 nmol min^-1 (mg dry weight)^-1,2.08 ± 0.15 nmol min^-1 (mg dry weight)^-1,2.99 ± 0.11 nmol min^-1 (mg dry weight)^-1,analogous to those observed for F11-treated cells,nearly the same or even somewhat higher
